# From US20110207820A1, “NOVEL CHRYSOCHROMULINA SPECIES, METHODS AND MEDIA THEREFOR, AND PRODUCTS DERIVED THEREFROM” (UNIVERSITY OF WASHINGTON, priority 2008, published 2011)
# Read-outs that look alike come from different tables or passages of the source.
# Experiments:
# Alga X [1] = test system: Alga X
# Method: The mother culture is generally about one week old and has a culture density of about 2×10̂6.
# Two experiments were run using 0, 8, 16, 32, and 64 mM NaCl salt concentrations in the Alga X culture medium. Alga cells were collected for lipid analysis at 0, 3, 6, and 9 days for each salt concentration.
# The starting culture densities were 5.00E+03 cells/ml.
# The starting culture densities were 1.00E+05 cells/ml.
# Alga X cell cultures were subjected to agitation between 0 and 100 rpm.
# A volume of about 37.6 ml of original stock was added to each starting flask, with the balance being medium to bring the cell cultures to a concentration of about 1.00E+06.
# The original stock culture was maintained in CORE1 (distilled water based medium), plus SEM, with a concentration of about 3.19E+06 cells/ml. Volumes of 34.5 ml of original stock were added to each starting flask, with the balance being medium to bring the cell cultures to a concentration of about 1.00E+05.
# The experimental AMPSO culture was maintained in a medium of Clear (human waste water), SEM, and 8 mM AMPSO pH buffer. The AMPSO plus NaHCO3 culture was maintained in a medium of Clear (human waste water), SEM, 8 mM AMPSO pH buffer, and 2 mM NaHCO3.
# [2] = test system: Single-cell and filamentous species of algae; assay: Algal growth in the continuous presence of the dye; type: cell-based; conditions: micromolar concentrations, for days (data not shown)
# [3] = test system: lipid bodies in algal cells; assay: BODIPY 505/515 vital staining of lipid bodies in live algal cells (fluorescence microscopy, cell sorter); type: cell-based, Alga X
# From the text: When added to a culture of algal cells, 1-10 micro-liters of BODIPY 505/515 stains intracellular lipid bodies within minutes. (Preparation of a BODIPY 505/515 stock solution is described below in EXAMPLE 30.) BODIPY 505/515 accumulates in lipidic compartments by a diffusion-trap mechanism. The dye has a high oil/water partition coefficient, which allows it to cross cell membranes and organelle membranes easily. When viewed under a fluorescent microscope, the background fluorescence of BODIPY 505/515 in the bath solution is slightly visible. Despite the slight background fluorescence, lipid bodies within live algal cells are intensely labeled and can be easily seen using fluorescein-type optics or confocal microscopy (see FIG. 8). […] This fluorescence arises from endogenous carotenoid and chlorophyll molecules located within the chloroplasts.
# Fluorescently labeled cells with large lipid bodies can be isolated using the fluorescent cell sorter and used to successfully seed new algal cultures. Fluorescently labeled cells have a signal/noise ratio of 50-200 above background fluorescence, depending on the BODIPY 505/515 dye concentration used. […] BODIPY 505/515 can be used to characterize the diurnal rhythm of lipid body size within algal cells or decline in lipid quantity per cell as a culture moves from one life history phase to another. […]
# Alga X [4] = assay: Fatty acid content and fatty acid profile of Alga X cells grown in test media (GC/MS, FAME ionization detection); type: cell-based, Chrysochromulina sp.
compound,measurement,setting,value
"O=P(O)(O)OC(CO)CO [BGlycerolphosphate, beta-glycerophosphate]",cells/mL,"Alga X [1]; B-glycerolphosphate 6.45 uM (control amount), day 2",6.98E+05 cells/mL
same,cells/mL,"Alga X [1]; B-glycerolphosphate 6.45 uM (control amount), day 3",1.57E+06 cells/mL
same,cells/mL,"Alga X [1]; B-glycerolphosphate 6.45 uM (control amount), day 4",2.75E+06 cells/mL
same,cells/mL,"Alga X [1]; B-glycerolphosphate 6.45 uM (control amount), day 6",3.54E+06 cells/mL
same,cells/mL,"Alga X [1]; B-glycerolphosphate 6.45 uM (control amount), day 8",4.10E+06 cells/mL
same,cells/mL,"Alga X [1]; B-glycerolphosphate 6.45 uM (control amount), day 9",4.53E+06 cells/mL
"CC1=CC(C)=[N+]2C1=Cc1c(C)cc(C)n1[B-]2(F)F [BODIPY 505/515, 4,4-difluoro-1,3,5,7-tetramethyl-4-bora-3a,4a-diaza-s-indacene]",growth of algae in continuous presence of the dye,[2],continue to grow well
same,time after dye addition until fluorescently-labeled lipid bodies are visible,"[3]; 1 micro-molar BODIPY 505/515, 0.05% DMSO",≤ 5 min
same,signal/noise ratio of labeled cells above background fluorescence,[3]; depending on dye concentration,50-200
O=P([O-])(O)O.[K+] [KH2PO4],fatty acid productivity,"Alga X [4]; increasing KH2PO4, by day 6",increases slightly
[Cl-].[Na+] [NaCl],level of NaCl at which Alga X exhibits maximum growth,Alga X [1],8.0 mM
same,survival of Alga X cells,Alga X [1],did not survive
same,cell growth,Alga X [1]; 32 mM salt content,depressed
CC(=O)O [acetate],cells/mL,"Alga X [1]; acetate 100 uM, day 0",1.0E+05 cells/mL
same,cells/mL,"Alga X [1]; acetate 100 uM, day 3",1.54E+06 cells/mL
same,cells/mL,"Alga X [1]; acetate 100 uM, day 6",3.27E+06 cells/mL
same,cells/mL,"Alga X [1]; acetate 100 uM, day 9",4.87E+06 cells/mL
same,cells/mL,"Alga X [1]; acetate 200 uM, day 0",1.0E+05 cells/mL
same,cells/mL,"Alga X [1]; acetate 200 uM, day 3",1.69E+06 cells/mL
same,cells/mL,"Alga X [1]; acetate 200 uM, day 6",4.02E+06 cells/mL
same,cells/mL,"Alga X [1]; acetate 200 uM, day 9",5.02E+06 cells/mL
same,cells/mL,"Alga X [1]; acetate 400 uM, day 0",1.0E+05 cells/mL
same,cells/mL,"Alga X [1]; acetate 400 uM, day 3",1.67E+06 cells/mL
same,cells/mL,"Alga X [1]; acetate 400 uM, day 6",4.44E+06 cells/mL
same,cells/mL,"Alga X [1]; acetate 400 uM, day 9",4.70E+06 cells/mL
O=C([O-])O.[Na+] [sodium bicarbonate],cell culture growth,"Alga X [1]; 2 mM, 4 mM or 6 mM, with AMPSO pH buffer",further enhances cell culture growth
nitrogen,lipid per cell,Alga X [4]; increased nitrogen in the media,little affected
